The test system of experiment [1] is L-1210 leukaemia cells. Nature of the experiment: L-1210 leukaemia anti-cancer study (NCI protocol), BDF1 mice. Type of experiment: in vivo. The settings on record: 20 mg/kg, seven days, Table 25. The text has this:
Mice of the BDF1 strain were given an i.p. inoculation of 10^6 L-1210 leukaemia cells on day 0. Twenty-four hours later, groups of 7 mice each were started on a […] treatment regimen of various doses of the compounds of this invention. The experiment was continued according to the guidelines provided under the National Cancer Institute protocol for screening new anti-cancer agents; T/C ratios (median or mean survival time of treated groups over median or mean survival time of controls) were calculated. A T/C value > 1.25 (or 125%) is considered to indicate significant anticancer activity.
Mice of the BDF1 strain, inoculated with L-1210 leukaemia cells, were treated for seven days with either 25, 50, 100, 200 or 400 mg/kg of Cpd. 1 or just buffer. The National Cancer Institute protocol for screening new anti-cancer agents was followed and T/C ratios were calculated.
Mice of the BDFI strain, inoculated with L-1210 leukaemia cells, were treated for seven days with either 100 mg/kg of Cpd. 1, 20 mg/kg of 5-fluorouracil (5-FU), a known anti-cancer agent, or just buffer. The National Cancer Institute protocol for screening new anti-cancer agents was followed and T/C ratios are calculated.

Experiment [2] concerns spleen lymphocytes. Nature of the experiment: Lymphocyte stimulation assay after in vivo treatment, C57BL/6 mice. Particulars: for Lymphocyte Stimulation Index Con-A / Lymphocyte Stimulation Index Control / Lymphocyte Stimulation Index PHA: C57BL/6, Table 3-A. On the procedure: (§1) The purpose of this assay is to challange lymphocytes in microcultures with one or more polyclonal mitogens at concentrations that will induce mitogenesis within 72 hours of stimulation.
(§2) In the mouse model, spleens were removed from different strains of mice and the spleen cells were teased free and suspended in RPMI-1640 tissue culture medium at a concentration of usually 1 x 10^7 ml. These cells were dispensed at a concentration of […] cells per microculture well in a 96 well flat bottom tissue culture plate. All testing of the compounds of this invention or mitogens were done in replicates of 10. The cells were then treated with PHA. Con-A, specific antigens, or buffer only. Where in vitro testing was done, varying concentrations of the compounds of this invention or buffer only were added to the cells as well. After treatment with the mitogens and/or compounds of this invention, the cells were incubated for 72 hours. The response of these cells to mitogens and/or the compounds of this invention was assessed using 14 C-thymidine labeling on the fourth day at a concentration of 0.01 microCi/well. The labeled cells were harvested using a lymphocyte harvestor and placed onto fibrous paper discs. A scintillation cocktail was added to vials containing the discs and the results were obtained using a LKB-liquid scintillation counter (Model 1216/Rackbeta II). The data is expressed as a ratio of the cpm (counts per minute) of the mitogen stimulated group to the control (non-mitogen) treated group = lymphocyte stimulation index (LSI).
(§3) The lymphocyte stimulation assay may be performed directly on spleen cells obtained from various strains of mice not treated with the compounds of this invention or on lymphocytes obtained from human plasma. In such experiments, the compounds of this invention were added directly to the spleen lymphcytes in vitro and the assay was completed and results interpreted. Alternatively. the mice may be treated in vivo with the compounds of this invention by intraperitoneal multi-dose schedules, followed by sacrifice and harvesting spleen lymphocytes. These cells were then tested for their response to polyclonal mitogens or specific antigens used to immunize the mice. In this system however, no additional compound was added to the in vitro lymphocyte stimulation assay system.

Experiment [3] deals with human lymphocytes. Kind of experiment: In vitro lymphocyte stimulation assay, human lymphocytes. Particulars: for Lymphocyte Stimulation Index Con-A / Lymphocyte Stimulation Index PHA: human, Table 6-A. The arrangement: key to Lymphocyte Stimulation Index PHA / Lymphocyte Stimulation Index Con-A: ratio of cpm of mitogen-stimulated to non-mitogen control group (LSI). Type of experiment: cell-based. As for the experimental part: as §1, §2, §3
Lymphocytes isolated from 5 human volunteers were treated in vitro with PHA and Con-A and either 10^2, 10^3, 10^4, 5 x 10^4 or 10^5 ng/well of Cpd. 1, 10^2, 10^3, 10^4, 5 x 10^4, or 10^5 ng/well of AA, or buffer.

Experiment [4] concerns spleen lymphocytes. Nature of the experiment: In vitro lymphocyte stimulation assay, C57BL/6 spleen lymphocytes. Format: cell-based, mice. Particulars: for effect on response of the lymphocytes to PHA and Con-A: C57BL/6 spleen cells in vitro, Example 19. As for the experimental part:
as §1, §2, §3

[5] abbreviates: 1.04x10^3 ng/well in vitro, C57BL/6, Table 12-A.
Setting [6] is: 1.66x10^4 ng/well in vitro, C57BL/6, Table 12-A.
The mark [7] stands for this setting: 2.08x10^3 ng/well in vitro, C57BL/6, Table 12-A.
[8] abbreviates: 4.15x10^3 ng/well in vitro, C57BL/6, Table 12-A.
Where [9] appears, read: 8.3x10^3 ng/well in vitro, C57BL/6, Table 12-A.
[10] abbreviates: 1.392x10^4 ng/well, C57BL/6, Table 12-B.
The mark [11] stands for this setting: 1.74x10^3 ng/well, C57BL/6, Table 12-B.
Setting [12] is: 3.48x10^3 ng/well, C57BL/6, Table 12-B.
The mark [13] stands for this setting: 6.96x10^3 ng/well, C57BL/6, Table 12-B.
[14] abbreviates: 8.7x10^2 ng/well, C57BL/6, Table 12-B.

For `O=c1[nH]cc(F)c(=O)[nH]1` [5-FU, 5-fluorouracil], in experiment [1], the “Median Survival Time” value was 30 and the T/C worked out at 1.50.
For the molecule `O=C1O[C@H]([C@@H](O)CO)C(O)=C1O` [AA, ascorbic acid], in experiment [2] (50 mg/kg i.p. 4 days, C57BL/6), the “effect on lymphocyte response, Con-A stimulated group” value was “single stimulation of proliferation”. For the same molecule, the “Lymphocyte Stimulation Index Con-A” value in experiment [2] (50 mg/kg i.p. 4 days) is 25.5; in experiment [2] (100 mg/kg i.p. 4 days) it was 19.8; in experiment [2] (200 mg/kg i.p. 4 days) it was 21.1; in experiment [2] (400 mg/kg i.p. 4 days) it was 17.8; in experiment [2] (800 mg/kg i.p. 4 days), 23.9; in experiment [3] (5x10^4 ng/well in vitro), 23.31. In addition, the “Lymphocyte Stimulation Index Con-A” value in experiment [3] (10^2 ng/well in vitro) is 24.37; in experiment [3] (10^3 ng/well in vitro), 24.76; in experiment [3] (10^4 ng/well in vitro) it was 27.35; in experiment [3] (10^5 ng/well in vitro) it was 25.18. Further, the “Lymphocyte Stimulation Index Control” value in experiment [2] (50 mg/kg i.p. 4 days) is on record as 0.56; in experiment [2] (100 mg/kg i.p. 4 days) it was 1.8; in experiment [2] (200 mg/kg i.p. 4 days), 1.3; in experiment [2] (400 mg/kg i.p. 4 days), 1.3; in experiment [2] (800 mg/kg i.p. 4 days), 0.50. Further, the “Lymphocyte Stimulation Index PHA” value amounted to 17.1 in experiment [2] (50 mg/kg i.p. 4 days); 17.1 in experiment [2] (100 mg/kg i.p. 4 days); 10.0 in experiment [2] (200 mg/kg i.p. 4 days); 14.3 in experiment [2] (400 mg/kg i.p. 4 days); 12.1 in experiment [2] (800 mg/kg i.p. 4 days); 35.93 in experiment [3] (5x10^4 ng/well in vitro). For the same molecule, the “Lymphocyte Stimulation Index PHA” value in experiment [3] (10^2 ng/well in vitro) is 38.29; in experiment [3] (10^3 ng/well in vitro), 34.69; in experiment [3] (10^4 ng/well in vitro), 35.10; in experiment [3] (10^5 ng/well in vitro), 34.23. Besides, the “effect on lymphocyte response with PHA” value in experiment [2] (50-800 mg/kg i.p. 4 days, C57BL/6) is recorded as “No statistically significant measureable effect”. Moreover, the “proliferative or anti-proliferative effect, PHA and Con-A” value in experiment [3] (10^2 to 10^5 ng/well, human lymphocytes in vitro) is listed as “no significant proliferative or anti-proliferative effect”.
As for `O=C(O)CCC(=O)O` [Succinic Acid, succinic acid], the “Lymphocyte Stimulation Index Con-A” value was 64.6 in experiment [4] (setting [5]); 38.5 in experiment [4] (setting [6]); 51.1 in experiment [4] (setting [7]); 42.3 in experiment [4] (setting [8]); 35.6 in experiment [4] (setting [9]). For the same molecule, the “Lymphocyte Stimulation Index Control” value amounted to 0.94 in experiment [4] (setting [5]); 1.1 in experiment [4] (setting [6]); 1.0 in experiment [4] (setting [7]); 0.91 in experiment [4] (setting [8]); 0.91 in experiment [4] (setting [9]). For the same molecule, the “Lymphocyte Stimulation Index PHA” value in experiment [4] (setting [5]) turned out to be 15.7; in experiment [4] (setting [6]), 11.5; in experiment [4] (setting [7]) it was 15.3; in experiment [4] (setting [8]), 14.0; in experiment [4] (setting [9]), 12.4. In addition, in experiment [4], the “effect on response of the lymphocytes to PHA and Con-A” value was “decrease in PHA and Con-A mitogenesis with increased succinic acid dosage”.
For the molecule `O=C1CCC(=O)N1` [Succinimide, succinimide], the “Lymphocyte Stimulation Index Con-A” value in experiment [4] (setting [10]) is given as 92.9; in experiment [4] (setting [11]), 83.4; in experiment [4] (setting [12]), 85.1; in experiment [4] (setting [13]) it was 71.9; in experiment [4] (setting [14]), 76.0. In addition, the “Lymphocyte Stimulation Index Control” value in experiment [4] (setting [10]) was determined as 1.4; in experiment [4] (setting [11]) it was 1.1; in experiment [4] (setting [12]), 0.98; in experiment [4] (setting [13]), 1.1; in experiment [4] (setting [14]), 0.91. In addition, the “Lymphocyte Stimulation Index PHA” value in experiment [4] (setting [10]) was found to be 17.1; in experiment [4] (setting [11]) it was 17.5; in experiment [4] (setting [12]), 18.1; in experiment [4] (setting [13]) it was 17.2; in experiment [4] (setting [14]), 19.5. Also, the “effect on response of the lymphocytes to PHA and Con-A” value in experiment [4] is “no significant suppressive or enhancing effect”.

The values above are taken from patent publication EP0123446A1, “2-Furylbutyrolactone derivatives, their preparation, compositions containing them, and their use for the modulation of the immune system in mammals” (NATIONAL FOUNDATION FOR CANCER RESEARCH, INC., priority 1983, dated 1984).
